Assay results taken from ChEMBL document CHEMBL1201862, “PubChem BioAssay data set” (2004).
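Each compound was tested at five concentrations against cells in 96-well plates for 48 hours. GI50 marks 50% less growth.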 Calls of active or inactive are those of the source. No stated cut-off is given here; in the data, active = GI50 up to about 1.1 µM and inactive = higher.

Columns and labels:
Assay in all cases: NCI-60 cell line screen, 48 h
[1] = system: OVCAR-4
[2] = system: DLD-1
[3] = system: KM12
[4] = system: RPMI-8226
[5] = system: 786-0
[6] = system: A498
[7] = system: IGROV-1
[8] = system: OVCAR-8
[9] = system: SNB-75
[10] = system: COLO 205
[11] = system: TK-10
[12] = system: U-251
[13] = system: SF-295
[14] = system: UACC-257
[15] = system: HOP-18
[16] = system: HCT-116
[17] = system: K562
[18] = system: SF-539
[19] = system: SW-620
[20] = system: LXFL 529
[21] = system: SF-268
[22] = system: Malme-3M
[23] = system: RXF 631
[24] = system: SK-MEL-5
[25] = system: KM-20L2
[26] = system: M19-MEL
[27] = system: SNB-78
[28] = system: DMS-273
[29] = system: A549
[30] = system: M14
[31] = system: HCT-15
[32] = system: CCRF-CEM
[33] = system: MOLT-4
[34] = system: UACC-62
[35] = system: NCI-H522
[36] = system: NCI-H460
[37] = system: HOP-92
[38] = system: ACHN
[39] = system: HOP-62
[40] = system: LOX IMVI
[41] = system: SR
[42] = system: SK-OV-3
[43] = system: HL-60
[44] = system: SNB-19
[45] = system: HT-29
[46] = system: OVCAR-5
[47] = system: CAKI-1
[48] = system: RXF 393
[49] = system: HCC 2998
[50] = system: UO-31
[51] = system: SK-MEL-2
[52] = system: SN12C
[53] = system: NCI-H226
[54] = system: NCI-H23
[55] = system: SK-MEL-28
[56] = system: EKVX
[57] = system: OVCAR-3
[58] = system: DMS-114
[59] = system: BT-549
[60] = system: DU-145
[61] = system: MDA-MB-231
[62] = system: NCI/ADR-RES
[63] = system: MDA-MB-435
[64] = system: T47D
[65] = system: XF498
[66] = system: Hs-578T
[67] = system: MCF7
[68] = system: PC-3
[69] = system: MDA-N

Measured: GI50

S=c1sc2sc(=S)sc2s1
inactive: [1] > 100 µM | [2] 37.1 µM | [3] > 100 µM | [4] 23.1 µM | [5] 68.4 µM | [6] 23.5 µM | [7] > 100 µM | [8] 50.1 µM | [9] 35.5 µM | [10] 84.9 µM | [11] > 100 µM | [12] 21 µM | [13] 20.6 µM | [14] > 100 µM | [15] > 100 µM | [16] 30.1 µM | [17] 22.3 µM | [18] 23.9 µM | [19] > 100 µM | [20] 13.6 µM | [21] 43.1 µM | [22] > 100 µM | [23] 18.7 µM | [24] > 100 µM | [25] 70.3 µM | [26] 28.6 µM | [27] 54.5 µM | [28] > 100 µM | [29] 31.6 µM | [30] 21.1 µM | [32] 6.08 µM | [33] 28.8 µM | [34] 37.2 µM | [35] 33.1 µM | [36] 22.4 µM | [37] 57.9 µM | [38] > 100 µM | [39] > 100 µM | [40] 33.5 µM | [41] 29.1 µM | [42] 19.6 µM | [43] 5.92 µM | [44] > 100 µM | [45] 29.6 µM | [46] 20.9 µM | [47] > 100 µM | [48] 35.6 µM | [49] > 100 µM | [50] 30 µM | [51] > 100 µM | [52] 96.8 µM
26.1 µM: [31]

C=CCC1(CN(C)C)CC/C(=C\c2ccc3c(c2)OCO3)C1=O (stereo not drawn)
inactive: [1] 67.5 µM | [2] 27.7 µM | [3] 42.3 µM | [53] > 100 µM | [4] 24.3 µM | [5] 44.8 µM | [6] 33.7 µM | [7] 60.5 µM | [8] 48.4 µM | [9] > 100 µM | [54] 65.8 µM | [10] 23.7 µM | [11] > 100 µM | [12] 52.1 µM | [13] > 100 µM | [14] 40.7 µM | [15] > 100 µM | [16] 43.6 µM | [17] 32.7 µM | [18] 88.9 µM | [19] 35.1 µM | [20] 34.5 µM | [21] 91 µM | [22] > 100 µM | [23] 25.4 µM | [24] 22.7 µM | [25] 28.9 µM | [26] 39.6 µM | [27] > 100 µM | [28] 47.6 µM | [29] 74.1 µM | [30] 56.9 µM | [55] > 100 µM | [32] 29.2 µM | [33] 27.3 µM | [56] 18.1 µM | [34] 68.4 µM | [35] 17.9 µM | [36] 50.4 µM | [37] 89.9 µM | [38] 31.6 µM | [39] > 100 µM | [40] 97.1 µM | [41] 41 µM | [43] 4.32 µM | [44] > 100 µM | [45] 36 µM | [46] > 100 µM | [47] 68.5 µM | [48] 59.8 µM | [49] 37.3 µM | [50] 45 µM | [57] 65.3 µM | [51] > 100 µM | [52] > 100 µM
39.4 µM: [31]

O=C(NC1CC1)c1c(O)[nH]c(=S)[nH]c1=O
> 100 µM: [31]
inactive: [1] > 100 µM | [2] > 100 µM | [3] > 100 µM | [53] > 100 µM | [4] > 100 µM | [5] > 100 µM | [6] > 100 µM | [7] > 100 µM | [8] > 100 µM | [9] > 100 µM | [54] > 100 µM | [10] > 100 µM | [11] > 100 µM | [12] > 100 µM | [13] > 100 µM | [14] > 100 µM | [15] > 100 µM | [16] > 100 µM | [17] > 100 µM | [18] > 100 µM | [19] > 100 µM | [20] > 100 µM | [21] > 100 µM | [22] > 100 µM | [23] > 100 µM | [24] > 100 µM | [25] > 100 µM | [26] > 100 µM | [27] > 100 µM | [29] > 100 µM | [30] > 100 µM | [55] > 100 µM | [32] > 100 µM | [33] > 100 µM | [34] > 100 µM | [35] > 100 µM | [36] > 100 µM | [37] > 100 µM | [38] > 100 µM | [39] > 100 µM | [40] > 100 µM | [41] > 100 µM | [42] > 100 µM | [43] > 100 µM | [44] > 100 µM | [58] > 100 µM | [45] > 100 µM | [46] > 100 µM | [47] > 100 µM | [50] > 100 µM | [57] > 100 µM | [51] > 100 µM | [52] > 100 µM

C[n+]1c2ccccc2c(CNC(CCC(N)=O)C(=O)O)c2ccccc21 (stereo not drawn)
1.24 µM: [31]
active: [2] 0.475 µM | [4] 0.39 µM | [5] 1.01 µM | [6] 0.6 µM | [10] 0.525 µM | [16] 0.302 µM | [17] 0.34 µM | [19] 0.506 µM | [20] 0.817 µM | [25] 1.1 µM | [64] 0.0221 µM | [32] 0.366 µM | [33] 0.998 µM | [37] 0.948 µM | [41] 1.07 µM | [43] 0.239 µM | [58] 0.577 µM | [67] 1.02 µM
inactive: [59] 4.59 µM | [1] 3.46 µM | [3] 2.46 µM | [53] 8.3 µM | [60] 5.52 µM | [7] 4.15 µM | [61] 5.36 µM | [8] 3.39 µM | [9] 5.22 µM | [54] 3.9 µM | [62] 4.56 µM | [11] 1.53 µM | [12] 3.31 µM | [13] 6.71 µM | [14] 4.31 µM | [15] 2.09 µM | [63] 2.55 µM | [18] 2.34 µM | [21] 1.77 µM | [22] 4.44 µM | [24] 1.99 µM | [26] 2.18 µM | [27] 6.5 µM | [28] 1.21 µM | [29] 4.38 µM | [30] 3.41 µM | [55] 5.96 µM | [56] 6.75 µM | [34] 2.23 µM | [35] 1.57 µM | [36] 3.72 µM | [38] 1.76 µM | [39] 4.94 µM | [40] 1.94 µM | [65] 2 µM | [42] 6.21 µM | [66] 5.68 µM | [44] 6.18 µM | [68] 5.61 µM | [45] 1.22 µM | [46] 9.1 µM | [47] 2.36 µM | [48] 1.99 µM | [69] 2.87 µM | [49] 4.24 µM | [50] 2.67 µM | [57] 2.31 µM | [51] 4.76 µM | [52] 2.64 µM

CCN(CC)CCCNC(=O)c1ccc([N+](=O)[O-])cc1O
inactive: [1] > 100 µM | [2] > 100 µM | [3] > 100 µM | [53] > 100 µM | [5] > 100 µM | [6] > 100 µM | [7] > 100 µM | [8] > 100 µM | [9] > 100 µM | [54] > 100 µM | [10] > 100 µM | [11] > 100 µM | [12] > 100 µM | [13] > 100 µM | [14] > 100 µM | [17] > 100 µM | [18] > 100 µM | [19] > 100 µM | [20] > 100 µM | [21] > 100 µM | [22] > 100 µM | [23] > 100 µM | [24] > 100 µM | [25] > 100 µM | [27] > 100 µM | [28] > 100 µM | [29] > 100 µM | [30] > 100 µM | [55] > 100 µM | [32] > 100 µM | [33] > 100 µM | [56] > 100 µM | [34] > 100 µM | [35] > 100 µM | [36] > 100 µM | [37] > 100 µM | [38] > 100 µM | [39] > 100 µM | [40] > 100 µM | [42] > 100 µM | [43] > 100 µM | [44] > 100 µM | [58] > 100 µM | [45] > 100 µM | [46] > 100 µM | [47] > 100 µM | [48] > 100 µM | [49] > 100 µM | [50] > 100 µM | [57] > 100 µM | [51] > 100 µM | [52] > 100 µM
> 100 µM: [31]
